Results taken from PubChem BioAssay (NCI).
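Grown in 96-well plates, cells were treated for 48 hours with each compound at five concentrations. Insufficient inhibition: endpoint recorded as highest concentration tested. TGI denotes the concentration required for complete inhibition of growth.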

Experiments:
Experiment in all cases: NCI tumour cell line growth inhibition, 48 h
SNB-78 CNS = system: SNB-78 CNS
HCT-15 colon = system: HCT-15 colon
SK-MEL-5 melanoma = system: SK-MEL-5 melanoma
MOLT-4 leukemia = system: MOLT-4 leukemia
M14 melanoma = system: M14 melanoma
SK-MEL-2 melanoma = system: SK-MEL-2 melanoma
SF-295 CNS = system: SF-295 CNS
KM12 colon = system: KM12 colon
HT29 colon = system: HT29 colon
SF-268 CNS = system: SF-268 CNS
RXF-631 renal = system: RXF-631 renal
COLO 205 colon = system: COLO 205 colon
HOP-18 NSCLC = system: HOP-18 NSCLC
SW-620 colon = system: SW-620 colon
NCI-H226 lung = system: NCI-H226 lung
LXFL 529 NSCLC = system: LXFL 529 NSCLC
NCI-H522 lung = system: NCI-H522 lung
LOX IMVI melanoma = system: LOX IMVI melanoma
HCT-116 colon = system: HCT-116 colon
OVCAR-8 ovarian = system: OVCAR-8 ovarian
MALME-3M melanoma = system: MALME-3M melanoma
TK-10 renal = system: TK-10 renal
HOP-92 NSCLC = system: HOP-92 NSCLC
UACC-257 melanoma = system: UACC-257 melanoma
U251 CNS = system: U251 CNS
NCI-H460 lung = system: NCI-H460 lung
SNB-19 CNS = system: SNB-19 CNS
DMS 114 small cell lung = system: DMS 114 small cell lung
RPMI-8226 leukemia = system: RPMI-8226 leukemia
A498 renal = system: A498 renal
OVCAR-5 ovarian = system: OVCAR-5 ovarian
CAKI-1 renal = system: CAKI-1 renal
IGROV1 ovarian = system: IGROV1 ovarian
UO-31 renal = system: UO-31 renal
786-0 renal = system: 786-0 renal
SF-539 CNS = system: SF-539 CNS
OVCAR-3 ovarian = system: OVCAR-3 ovarian
ACHN renal = system: ACHN renal
SK-OV-3 ovarian = system: SK-OV-3 ovarian
SNB-75 CNS = system: SNB-75 CNS
SR leukemia = system: SR leukemia
NCI-H23 lung = system: NCI-H23 lung
M19-MEL melanoma = system: M19-MEL melanoma
DLD-1 colon = system: DLD-1 colon
UACC-62 melanoma = system: UACC-62 melanoma
A549 NSCLC = system: A549 NSCLC
KM20L2 colon = system: KM20L2 colon
EKVX NSCLC = system: EKVX NSCLC
HL-60(TB) leukemia = system: HL-60(TB) leukemia
CCRF-CEM leukemia = system: CCRF-CEM leukemia
SN12C renal = system: SN12C renal
SK-MEL-28 melanoma = system: SK-MEL-28 melanoma
HOP-62 NSCLC = system: HOP-62 NSCLC
K-562 leukemia = system: K-562 leukemia
OVCAR-4 ovarian = system: OVCAR-4 ovarian
RXF 393 renal = system: RXF 393 renal
DMS 273 small cell lung = system: DMS 273 small cell lung
XF 498 CNS = system: XF 498 CNS
HCC-2998 colon = system: HCC-2998 colon

Measured: TGI

CC(=O)Nc1ccccc1-c1nc2ccccc2nc1C
> 100 µM: SNB-78 CNS | HCT-15 colon | SK-MEL-5 melanoma | MOLT-4 leukemia | M14 melanoma | SK-MEL-2 melanoma | SF-295 CNS | KM12 colon | HT29 colon | SF-268 CNS | RXF-631 renal | COLO 205 colon | HOP-18 NSCLC | SW-620 colon | NCI-H226 lung | LXFL 529 NSCLC | NCI-H522 lung | LOX IMVI melanoma | HCT-116 colon | OVCAR-8 ovarian | MALME-3M melanoma | TK-10 renal | HOP-92 NSCLC | UACC-257 melanoma | U251 CNS | NCI-H460 lung | SNB-19 CNS | DMS 114 small cell lung | RPMI-8226 leukemia | A498 renal | OVCAR-5 ovarian | CAKI-1 renal | IGROV1 ovarian | UO-31 renal | 786-0 renal | SF-539 CNS | OVCAR-3 ovarian | ACHN renal | SK-OV-3 ovarian | SNB-75 CNS | SR leukemia | NCI-H23 lung | M19-MEL melanoma | DLD-1 colon | UACC-62 melanoma | A549 NSCLC | KM20L2 colon | EKVX NSCLC | HL-60(TB) leukemia | CCRF-CEM leukemia | SN12C renal | SK-MEL-28 melanoma | HOP-62 NSCLC | K-562 leukemia | OVCAR-4 ovarian

COc1ccc(C(CCC(C)=O)C(=O)O)cc1OC (stereo not given)
> 100 µM: SNB-78 CNS | HCT-15 colon | SK-MEL-5 melanoma | SK-MEL-2 melanoma | SF-295 CNS | KM12 colon | HT29 colon | SF-268 CNS | COLO 205 colon | HOP-18 NSCLC | SW-620 colon | LOX IMVI melanoma | RXF 393 renal | HCT-116 colon | OVCAR-8 ovarian | MALME-3M melanoma | TK-10 renal | HOP-92 NSCLC | UACC-257 melanoma | DMS 273 small cell lung | U251 CNS | NCI-H460 lung | SNB-19 CNS | RPMI-8226 leukemia | A498 renal | OVCAR-5 ovarian | CAKI-1 renal | IGROV1 ovarian | 786-0 renal | SF-539 CNS | OVCAR-3 ovarian | ACHN renal | SNB-75 CNS | SR leukemia | NCI-H23 lung | M19-MEL melanoma | DLD-1 colon | UACC-62 melanoma | A549 NSCLC | KM20L2 colon | EKVX NSCLC | SN12C renal | SK-MEL-28 melanoma | XF 498 CNS | HOP-62 NSCLC | K-562 leukemia | OVCAR-4 ovarian

COc1ccc(/C=N/NC(=O)c2sc(=S)n(-c3ccccc3)c2N)cc1
79.5 µM: HOP-92 NSCLC
> 100 µM: SK-MEL-5 melanoma | MOLT-4 leukemia | SF-295 CNS | KM12 colon | HT29 colon | HCC-2998 colon | SF-268 CNS | COLO 205 colon | HOP-18 NSCLC | SW-620 colon | NCI-H226 lung | LXFL 529 NSCLC | NCI-H522 lung | HCT-116 colon | OVCAR-8 ovarian | TK-10 renal | UACC-257 melanoma | U251 CNS | NCI-H460 lung | SNB-19 CNS | OVCAR-5 ovarian | IGROV1 ovarian | UO-31 renal | SF-539 CNS | OVCAR-3 ovarian | ACHN renal | SK-OV-3 ovarian | SR leukemia | NCI-H23 lung | M19-MEL melanoma | DLD-1 colon | UACC-62 melanoma | A549 NSCLC | HL-60(TB) leukemia | CCRF-CEM leukemia | SK-MEL-28 melanoma | HOP-62 NSCLC | K-562 leukemia
8.67 µM: SNB-75 CNS

O=C(C=C1SCCS1)/C=C\c1ccc(Cl)cc1
84.1 µM: HCC-2998 colon
> 100 µM: SNB-78 CNS | SK-MEL-5 melanoma | MOLT-4 leukemia | M14 melanoma | SK-MEL-2 melanoma | SF-295 CNS | KM12 colon | HT29 colon | SF-268 CNS | RXF-631 renal | COLO 205 colon | SW-620 colon | NCI-H226 lung | LXFL 529 NSCLC | NCI-H522 lung | LOX IMVI melanoma | HCT-116 colon | OVCAR-8 ovarian | MALME-3M melanoma | TK-10 renal | HOP-92 NSCLC | UACC-257 melanoma | DMS 273 small cell lung | SNB-19 CNS | RPMI-8226 leukemia | A498 renal | CAKI-1 renal | IGROV1 ovarian | UO-31 renal | 786-0 renal | SF-539 CNS | OVCAR-3 ovarian | SK-OV-3 ovarian | SNB-75 CNS | SR leukemia | NCI-H23 lung | M19-MEL melanoma | DLD-1 colon | UACC-62 melanoma | A549 NSCLC | EKVX NSCLC | HL-60(TB) leukemia | CCRF-CEM leukemia | SN12C renal | SK-MEL-28 melanoma | XF 498 CNS | HOP-62 NSCLC | K-562 leukemia | OVCAR-4 ovarian

CC(=O)Nc1ccc(/C=c2\sc3nnc(CCC(=O)Nc4ccccc4Cl)n3c2=O)cc1
46.4 µM: KM12 colon
43.2 µM: SR leukemia
68.2 µM: SK-MEL-5 melanoma
43 µM: OVCAR-4 ovarian
36.2 µM: NCI-H522 lung
57.7 µM: HOP-92 NSCLC
88 µM: SF-268 CNS
> 10 µM: HCC-2998 colon | OVCAR-8 ovarian | UACC-257 melanoma | NCI-H460 lung
68.3 µM: K-562 leukemia
35.8 µM: M14 melanoma
87.5 µM: SW-620 colon
56.2 µM: UACC-62 melanoma
58.7 µM: RXF 393 renal
> 100 µM: SNB-78 CNS | HCT-15 colon | HT29 colon | RXF-631 renal | HOP-18 NSCLC | LXFL 529 NSCLC | HCT-116 colon | MALME-3M melanoma | TK-10 renal | SNB-19 CNS | DMS 114 small cell lung | OVCAR-5 ovarian | CAKI-1 renal | IGROV1 ovarian | UO-31 renal | ACHN renal | SK-OV-3 ovarian | NCI-H23 lung | M19-MEL melanoma | DLD-1 colon | A549 NSCLC | EKVX NSCLC | SN12C renal | HOP-62 NSCLC
31.8 µM: U251 CNS
42.9 µM: CCRF-CEM leukemia
38.9 µM: SF-295 CNS
56.5 µM: SK-MEL-28 melanoma
45.2 µM: RPMI-8226 leukemia
34.5 µM: LOX IMVI melanoma
48.9 µM: 786-0 renal
81.9 µM: SK-MEL-2 melanoma
41 µM: HL-60(TB) leukemia
44.7 µM: MOLT-4 leukemia
52.7 µM: NCI-H226 lung
49.9 µM: XF 498 CNS
58 µM: SF-539 CNS
47.4 µM: OVCAR-3 ovarian

C#CCNC(=O)N(CC#C)N=O
> 100 µM: SNB-78 CNS | HCT-15 colon | SK-MEL-5 melanoma | MOLT-4 leukemia | M14 melanoma | SK-MEL-2 melanoma | SF-295 CNS | KM12 colon | HT29 colon | HCC-2998 colon | SF-268 CNS | HOP-18 NSCLC | SW-620 colon | NCI-H226 lung | LXFL 529 NSCLC | LOX IMVI melanoma | RXF 393 renal | HCT-116 colon | OVCAR-8 ovarian | MALME-3M melanoma | TK-10 renal | HOP-92 NSCLC | UACC-257 melanoma | DMS 273 small cell lung | U251 CNS | NCI-H460 lung | SNB-19 CNS | DMS 114 small cell lung | A498 renal | OVCAR-5 ovarian | CAKI-1 renal | IGROV1 ovarian | UO-31 renal | 786-0 renal | SF-539 CNS | OVCAR-3 ovarian | ACHN renal | SK-OV-3 ovarian | SNB-75 CNS | NCI-H23 lung | M19-MEL melanoma | DLD-1 colon | UACC-62 melanoma | KM20L2 colon | EKVX NSCLC | CCRF-CEM leukemia | SN12C renal | SK-MEL-28 melanoma | XF 498 CNS | HOP-62 NSCLC | K-562 leukemia | OVCAR-4 ovarian
41.6 µM: NCI-H522 lung
63.4 µM: HL-60(TB) leukemia

CN1C(=O)CCC2[C@@H]3CC=C4C[C@@H](O)CC[C@]4(C)C3CC[C@@]21C (stereo not given in full)
> 100 µM: SNB-78 CNS | HCT-15 colon | M14 melanoma | SK-MEL-2 melanoma | SF-295 CNS | KM12 colon | HT29 colon | HCC-2998 colon | RXF-631 renal | SW-620 colon | NCI-H226 lung | LXFL 529 NSCLC | RXF 393 renal | HCT-116 colon | OVCAR-8 ovarian | MALME-3M melanoma | TK-10 renal | UACC-257 melanoma | DMS 273 small cell lung | U251 CNS | NCI-H460 lung | DMS 114 small cell lung | RPMI-8226 leukemia | A498 renal | OVCAR-5 ovarian | CAKI-1 renal | IGROV1 ovarian | UO-31 renal | 786-0 renal | SF-539 CNS | OVCAR-3 ovarian | ACHN renal | SK-OV-3 ovarian | SNB-75 CNS | NCI-H23 lung | M19-MEL melanoma | DLD-1 colon | UACC-62 melanoma | A549 NSCLC | KM20L2 colon | EKVX NSCLC | CCRF-CEM leukemia | SK-MEL-28 melanoma | XF 498 CNS | HOP-62 NSCLC | K-562 leukemia | OVCAR-4 ovarian
69.6 µM: MOLT-4 leukemia
56 µM: HL-60(TB) leukemia
50.3 µM: SK-MEL-5 melanoma
